Assay results reported in patent US20260364101A1, “OLEUROPEIN IN THE MANAGEMENT OF CANCER” (FUNDACIÓN MIGUEL SERVET, priority 2023, published 2026).

Tests used:
CD4 T cells [1] = experiment: mixed lymphocyte reaction (MLR) with MDSCs as stimulator cells (FIG. 1c,d); type: cell-based, mouse; details: treated MDSCs as stimulators; 5 days
Method: (§1) MLR were carried out following standard procedures. Briefly, 100,000 MDSCs or TAMs from C57BL/6 mice were co-cultured in 96-well plates with 100,000 lymphocytes from BALB/c mice. Co-cultured cells were treated with 50 µM oleuropein and compared with control vehicle. After 5 days, T-lymphocyte activation, differentiation and proliferation were assessed by flow cytometry. T-cell activation and proliferation markers (Ki-67) and pro-inflammatory cytokine production (IL-2 and IFNγ) were evaluated by flow cytometry in CD4 and CD8 T cells as described before.
(§2) Surface and intracellular staining were carried out as described before with the following fluorochrome-conjugated antibody clones: AF488 anti-CD49d (R1-2), PE anti-CD4 (GK1.5), APCanti-CD8(53-6.7), brilliant Violet 510™ anti-I-A/I-E (M5/114.15.2,PE/Cyanine7anti-Ly-6G (1A8), and APC anti-CD80 (16-10A1) (Biolegend), FITC anti-IL-12 (C15.6) and BV421 anti-IL-2 (JES6-5H4) (BD Bioscience), APC-Vio® 770 anti-Ly-6C (REA796), PE REAfinity™ anti-F4/80 (REA126), and APC anti-CD68 (REA886) (Miltenyi), PerCP-Cyanine5.5 Anti-Human/Mouse CD11b (M1/70) (Tonbo), and AF488 anti-IFNγ (Clone XMG1.2) (BD Pharmigen). For human cells, it was used the following fluorochrome-conjugated antibodies: PerCP-Cy5.5-anti-CD11b (integrina alfa M) (M1/70), Violet Fluor 450 anti-CD14 antibody (61D3) (Tonbo), PE anti-CD115 (CSF-1R) (9-4D2-1E4) (Biolegend), PE-Cy™7 anti-CD11c (Clone B-ly6) (BD Bioscience), and APC anti-HLA-DR (REA517) (Miltenyi).

CD4 T cells [2] = experiment: mixed lymphocyte reaction (MLR) with TAMs as stimulator cells (FIG. 1c,d); type: cell-based, mouse; details: treated TAMs as stimulators; 5 days
Method: as §1
as §2, with “For human cells, it was used the following fluorochrome-conjugated antibodies: PerCP-Cy5.5-anti-CD11b (integrina alfa M) (M1/70), Violet Fluor 450 anti-CD14 antibody (61D3) (Tonbo), PE anti-CD115 (CSF-1R) (9-4D2-1E4) (Biolegend), PE-Cy™7 anti-CD11c (Clone B-ly6) (BD Bioscience), and APC anti-HLA-DR (REA517) (Miltenyi).” left out

TAMs = experiment: ex vivo differentiated TAMs treated with compound, marker expression by flow cytometry (FIG. 1b); type: cell-based, mouse; details: BML-275 500 nM
Method: (§3) Immunosuppressive myeloid cell subsets resembling tumor-infiltrating subsets (g-MDSCs, m-MDSCs and TAMs) were differentiated from mouse bone marrow following published procedures using conditioning medium produced by LLC tumor cells stably expressing GMCSF and MCSF cells. g- and m-MDSCs were purified using the myeloid-derived suppressor cell isolation kit (Miltenyi Biotec, Bergisch, Germany) according to manufacturer's recommendations. MDSCs and TAMs were seeded with 500 nM BML-275 or 50 μM oleuropein and incubated for seven days.
as §2
(§4) Data were collected using the FACSCanto Flow Cytometer (BD Biosciences) for ex vivo and in vitro experiments at Navarrabiomed Biomedical Research Center and Cyroflex LX flow cytometer (Beckman Counter). Data were analyzed with Flowjo.

MDSCs = experiment: ex vivo differentiated MDSCs treated with compound, marker expression by flow cytometry (FIG. 1a); type: cell-based, mouse; details: BML-275 500 nM alone or with oleuropein 50 μM; MDSCs
Method: as §3, §2, §4

MDSC and CD3 T cells = details: related art; cited from earlier work

| Compound | CD4 T cell stimulation assessed by IFNγ and IL-2 production (CD4 T cells [1]) | CD4 T cell stimulation assessed by IFNγ and IL-2 production (CD4 T cells [2]) | CD68 (M1 marker) (TAMs; AMPK inhibition in TAMs) | cells co-expressing MHC-II and CD80 (TAMs; oleuropein 50 μM, TAMs) | expression of CD49d (MDSCs) | effect on MDSC and CD3 T cells (MDSC and CD3 T cells) |
| --- | --- | --- | --- | --- | --- | --- |
| c1cc(-c2cnn3cc(-c4ccc(OCCN5CCCCC5)cc4)cnc23)ccn1 [BML-275, reference compound] | weaker | weaker | increased | significant elevation | reduced |  |
| Nc1ccn([C@@H]2O[C@H](CO)[C@@H](O)C2(F)F)c(=O)n1 [gemcitabine] |  |  |  |  |  | simultaneously reduces the MDSC and the CD3 T cells |
